Assays:
KRas G12D [1] = molecular target: T1, KRas G12D (Homo sapiens, UniProt P01116, G12D); assay: KRas G12D Surface Plasmon Resonance (SPR) Binding Assay; conditions: Biacore T200, biotinylated Avidin-tagged KRAS protein on SA chip, 20 C, 1:1 binding model
Method: This Example illustrates that exemplary compounds of the present invention bind to KRas G12D as measured by surface plasmon resonance (SPR). Briefly, 1 L of 1.05×HBS-Mg buffer (262.5 mM BioUltra Hepes, pH 7.5, 157.5 mM NaCl, 105 mM MgCl2, 0.525 mM TCEP, […] Brij-35) was prepared and filter sterilized using a 0.22 μm bottle top filter. Approximately 50 mL of 1.05×HBS-Mg buffer was removed and saved for future dilutions. A 50 mL aliquot of DMSO (Sigma Aldrich DMSO Lot. #SHBK2079) was added and continued to stir for 10 minutes, creating the final 1.0×HBS-Mg buffer (250 mM BioUltra Hepes pH 7.5, 150 mM NaCl, 100 mM MgCl2, 0.5 mM TCEP, 0.03% Brij-35). Biacore T200 instrument was primed using 1.0×HBS-Mg buffer before docking a GE Streptavidin (SA) chip and then primed two additional times prior to beginning the immobilization step. All immobilized protein mixtures were created using 3-5 mg/mL Biotinylated Avidin-tagged KRAS protein using the following immobilization settings: SA chip type, 1 flow cells per cycle, 720 second contact time, and 5 μL/min flow rate. Normalization of the detector was also performed during the immobilization step using the GE BiaNormalize solution. All compounds were diluted to 10 mM in 100% DMSO prior to being diluted 20× in 1.05× buffer. Another 10× dilution was created using 1.0× buffer prior to performing a series of 3× dilutions to create a compound concentration curve using the following assay settings: 20 C analysis temperature, General Settings=10 Hz data collection rate and multi-detection; Assay Steps=all set to LMW kinetics; Cycle Types=LMW kinetics (60s contact time, 120s dissociation time, 100 μL/min flow rate, extra wash after injection with 50% DMSO, flow path 1,2,3,4); Flow path detection=2-1, 4-3). Data evaluation was performed using the Biacore T200 Evaluation software and data fit to 1:1 binding model.
Target sequence in this assay (P01116 1-188 isoform P01116-2 G12D): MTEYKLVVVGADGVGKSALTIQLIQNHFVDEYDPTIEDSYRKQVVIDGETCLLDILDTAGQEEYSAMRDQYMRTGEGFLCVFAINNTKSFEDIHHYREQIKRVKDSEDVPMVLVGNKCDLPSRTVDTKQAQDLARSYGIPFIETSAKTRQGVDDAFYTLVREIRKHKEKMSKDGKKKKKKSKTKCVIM

[2] = test system: KRas G12D-mediated Phosphorylation of ERK; assay: Inhibition of KRas G12D-mediated Phosphorylation of ERK in AGS cells; assay type: cell-based; conditions: Homo sapiens; AGS cells expressing G12D, 3 hours, phospho-ERK normalized to GAPDH
Procedure, shortened: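 AGS cells (endogenous KRas G12D) were treated with compounds for 3 h in 0.5% DMSO, then fixed, permeabilized and immunostained. The phospho-ERK (Thr202/Tyr204) signal was normalized to GAPDH in-cell by infrared detection and expressed as % of DMSO control. IC50 came from a 4-parameter fit.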

KRas G12D [3] = molecular target: T1, KRas G12D; assay: KRas G12D Binding Assay (TR-FRET displacement of labeled tracer); design: corresponding to amino acids 1:169, produced at Array BioPharma; biotin (protein is biotinylated); conditions: TR-FRET displacement of Cy5 labelled tracer, biotinylated GDP-loaded KRAS G12D (aa 1:169), 60 minute incubation at 22° C.
Procedure, shortened: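 Biotinylated GDP-loaded human KRAS G12D (aa 1–169) incubated with Cy5 tracer, Eu-streptavidin and compound (2% DMSO final) in 50 mM HEPES pH 7.5, 5 mM MgCl2, 0.005% Tween-20, 1 mM DTT, 60 min at 22 °C. TR-FRET ratio converted to percent of control; IC50 at 50 POC from 4-parameter logistic fit.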
Target sequence in this assay (P01116 1-169 isoform P01116-2 G12D): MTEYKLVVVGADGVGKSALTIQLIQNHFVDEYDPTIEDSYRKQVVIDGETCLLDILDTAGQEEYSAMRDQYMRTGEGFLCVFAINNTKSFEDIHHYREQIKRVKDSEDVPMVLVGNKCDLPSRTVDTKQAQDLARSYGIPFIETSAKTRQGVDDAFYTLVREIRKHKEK

Structure (SMILES) | Kd (KRas G12D [1]) | IC50 [2] | IC50 (KRas G12D [3])
CN1CCC[C@H]1COc1nc2c(c(N3C[C@H]4C[C@@H](O)[C@@H](C3)N4)n1)CCN(c1cc(O)cc3ccccc13)C2 (single isomer, unassigned) [Example 54] | 501 µM | 1.13 µM | 0.0411 µM
Clc1cccc2cncc(N3CCc4c(nc(OCC56CCCN5CCC6)nc4N4C[C@H]5CC[C@@H](C4)N5)C3)c12 [Example 30, 4-((1R,5S)-3,8-diazabicyclo[3.2.1]octan-3-yl)-7-(5-chloroisoquinolin-4-yl)-2-((tetrahydro-1H-pyrrolizin-7a(5H)-yl)methoxy)-5,6,7,8-tetrahydropyrido[3,4-d]pyrimidine] | 0.0871 µM | 2.61 µM | 0.0168 µM
CO[C@@H]1C[C@@H]2CN(c3nc(OC[C@@H]4CCCN4C)nc4c3CCN(c3cc(O)cc5ccccc35)C4)C[C@H]1N2 [Example 37, 4-(4-((1R,5R,6R)-6-methoxy-3,8-diazabicyclo[3.2.1]octan-3-yl)-2-(((S)-1-methylpyrrolidin-2-yl)methoxy)-5,8-dihydropyrido[3,4-d]pyrimidin-7(6H)-yl)naphthalen-2-ol] | 12.8 µM | 3.85 µM | 0.0881 µM
C[C@@H]1CC2CN(c3nc(OC[C@@H]4CCCN4C)nc4c3CCN(c3cccc5cccc(Cl)c35)C4)C[C@H]1N2 (single isomer, unassigned) [Example 87] | 0.705 µM | 13.4 µM | 0.271 µM
CN1CCC[C@H]1COc1nc2c(c(N3C[C@@H]4C[C@@H](O)[C@H](C3)N4)n1)CCN(c1cccc3cccc(Cl)c13)C2 [Example 95, (1S,5S,6R)-3-(7-(8-chloronaphthalen-1-yl)-2-(((S)-1-methylpyrrolidin-2-yl)methoxy)-5,6,7,8-tetrahydropyrido[3,4-d]pyrimidin-4-yl)-3,8-diazabicyclo[3.2.1]octan-6-ol] | 0.0583 µM | > 16.7 µM | 0.0506 µM
CO[C@@H]1C[C@@H]2CN(c3nc(OCC45CCCN4CC(F)C5)nc4c3CCN(c3cccc5cccc(Cl)c35)C4)C[C@H]1N2 (mixture of isomers) [Example 43, 7-(8-chloronaphthalen-1-yl)-2-((2-fluorotetrahydro-1H-pyrrolizin-7a(5H)-yl)methoxy)-4-((1R,5R,6R)-6-methoxy-3,8-diazabicyclo[3.2.1]octan-3-yl)-5,6,7,8-tetrahydropyrido[3,4-d]pyrimidine] | 0.0576 µM | > 16.7 µM | 0.0901 µM
CC(Oc1nc2c(c(N3C[C@H]4CC[C@@H](C3)N4)n1)CCN(c1cc(O)c(Cl)c3ccccc13)C2)[C@@H]1CCCN1 (stereo partly drawn) [Example 26, 4-(4-((1R,5S)-3,8-diazabicyclo[3.2.1]octan-3-yl)-2-(1-((S)-pyrrolidin-2-yl)ethoxy)-5,8-dihydropyrido[3,4-d]pyrimidin-7(6H)-yl)-1-chloronaphthalen-2-ol] | 0.325 µM | > 16.7 µM | –
Oc1cc(N2CCc3c(nc(OC[C@@H]4CCCN4)nc3N3C[C@H]4CC[C@@H](C3)N4)C2)c2ccccc2c1Cl [Example 27, 4-(4-((1R,5S)-3,8-diazabicyclo[3.2.1]octan-3-yl)-2-(((S)-pyrrolidin-2-yl)methoxy)-5,8-dihydropyrido[3,4-d]pyrimidin-7(6H)-yl)-1-chloronaphthalen-2-ol] | 0.0913 µM | 11.1 µM | 1.6 µM
CN1CCC[C@H]1COc1nc2c(c(N3C[C@H]4CC[C@@H](C3)N4)n1)CCN(c1cccc3cccc(Cl)c13)C2 [Example 2, 4-((1R,5S)-3,8-diazabicyclo[3.2.1]octan-3-yl)-7-(8-chloronaphthalen-1-yl)-2-(((S)-1-methylpyrrolidin-2-yl)methoxy)-5,6,7,8-tetrahydropyrido[3,4-d]pyrimidine] | 0.163 µM | 16.1 µM | 0.267 µM
CN1CCC[C@H]1COc1nc2c(c(N3C[C@H]4CC[C@@H](C3)N4)n1)CCN(c1cc(O)c(Br)c3ccccc13)C2 [Example 109, 4-(4-((1R,5S)-3,8-diazabicyclo[3.2.1]octan-3-yl)-2-(((S)-1-methylpyrrolidin-2-yl)methoxy)-5,8-dihydropyrido[3,4-d]pyrimidin-7(6H)-yl)-1-bromonaphthalen-2-ol] | 0.0208 µM | 0.663 µM | 0.0055 µM
Clc1cccc2cccc(N3CCc4c(nc(OCC56CCCN5CCC6)nc4N4C[C@H]5CC[C@@H](C4)N5)C3)c12 [Example 29, 4-((1R,5S)-3,8-diazabicyclo[3.2.1]octan-3-yl)-7-(8-chloronaphthalen-1-yl)-2-((tetrahydro-1H-pyrrolizin-7a(5H)-yl)methoxy)-5,6,7,8-tetrahydropyrido[3,4-d]pyrimidine] | 0.0063 µM | 4.05 µM | 0.0025 µM
CN1CCC[C@H]1COc1nc2c(c(N3C[C@H]4CC[C@@H](C3)N4)n1)CCN(c1cc(O)c(Cl)c3ccccc13)C2 [Example 24, 4-(4-((1R,5S)-3,8-diazabicyclo[3.2.1]octan-3-yl)-2-(((S)-1-methylpyrrolidin-2-yl)methoxy)-5,8-dihydropyrido[3,4-d]pyrimidin-7(6H)-yl)-1-chloronaphthalen-2-ol] | 0.0377 µM | > 16.7 µM | 1.36 µM
CN1CCC[C@H]1COc1nc2c(c(N3C[C@H]4CC[C@@H](C3)N4)n1)CCN(c1cc(O)cc3cccc(Cl)c13)C2 [Example 28, 4-(4-((1R,5S)-3,8-diazabicyclo[3.2.1]octan-3-yl)-2-(((S)-1-methylpyrrolidin-2-yl)methoxy)-5,8-dihydropyrido[3,4-d]pyrimidin-7(6H)-yl)-5-chloronaphthalen-2-ol] | > 1000 µM | 0.361 µM | 0.0012 µM
CN1CCC[C@H]1COc1nc2c(c(N3C[C@H]4CC[C@@H](C3)N4)n1)CCN(c1cc(C(F)F)cc3ccccc13)C2 [Example 56, 4-((1R,5S)-3,8-diazabicyclo[3.2.1]octan-3-yl)-7-(3-(difluoromethyl)naphthalen-1-yl)-2-(((S)-1-methylpyrrolidin-2-yl)methoxy)-5,6,7,8-tetrahydropyrido[3,4-d]pyrimidine] | 89.9 µM | > 16.7 µM | > 10 µM
CN1CCC[C@H]1COc1nc2c(c(N3C[C@H]4CC[C@@H](C3)N4)n1)CCN(c1c(F)ccc(F)c1C(F)F)C2 [Example 76, 4-((1R,5S)-3,8-diazabicyclo[3.2.1]octan-3-yl)-7-(2-(difluoromethyl)-3,6-difluorophenyl)-2-(((S)-1-methylpyrrolidin-2-yl)methoxy)-5,6,7,8-tetrahydropyrido[3,4-d]pyrimidine] | 97 µM | > 16.7 µM | > 10 µM
CN1CCC[C@H]1COc1nc2c(c(N3CC4CCC(C)(C3)N4)n1)CCN(c1cc(O)cc3ccccc13)C2 (stereo partly drawn) [Example 61, 4-(4-(1-methyl-3,8-diazabicyclo[3.2.1]octan-3-yl)-2-(((S)-1-methylpyrrolidin-2-yl)methoxy)-5,8-dihydropyrido[3,4-d]pyrimidin-7(6H)-yl)naphthalen-2-ol] | 0.176 µM | 6.88 µM | 0.184 µM
CN1CCC[C@H]1COc1nc2c(c(N3C[C@H]4CC[C@@H](C3)N4)n1)CCN(c1cccc3cccc(CCC#N)c13)C2 [Example 80, 3-(8-(4-((1R,5S)-3,8-diazabicyclo[3.2.1]octan-3-yl)-2-(((S)-1-methylpyrrolidin-2-yl)methoxy)-5,8-dihydropyrido[3,4-d]pyrimidin-7(6H)-yl)naphthalen-1-yl)propanenitrile] | 0.617 µM | 11.1 µM | –
CC1CCCc2cccc(N3CCc4c(nc(OC[C@@H]5CCCN5C)nc4N4C[C@H]5CC[C@@H](C4)N5)C3)c21 (stereo partly drawn) [Example 82, 4-((1R,5S)-3,8-diazabicyclo[3.2.1]octan-3-yl)-7-(8-methyl-5,6,7,8-tetrahydronaphthalen-1-yl)-2-(((S)-1-methylpyrrolidin-2-yl)methoxy)-5,6,7,8-tetrahydropyrido[3,4-d]pyrimidine] | 0.149 µM | – | 0.061 µM
